{
  "source": "ChEMBL document CHEMBL3272155",
  "about": "“Synthesis of beta-spiro[pyrrolidinoindolines], their binding to the glycine receptor, and in vivo biological acitivity” (J Med Chem, 1977)",
  "key": {"[1]": {"target": "T1, Glycine receptor subunit alpha-1 (Rattus norvegicus, UniProt P07727)", "T1 sequence (P07727 whole entry)": "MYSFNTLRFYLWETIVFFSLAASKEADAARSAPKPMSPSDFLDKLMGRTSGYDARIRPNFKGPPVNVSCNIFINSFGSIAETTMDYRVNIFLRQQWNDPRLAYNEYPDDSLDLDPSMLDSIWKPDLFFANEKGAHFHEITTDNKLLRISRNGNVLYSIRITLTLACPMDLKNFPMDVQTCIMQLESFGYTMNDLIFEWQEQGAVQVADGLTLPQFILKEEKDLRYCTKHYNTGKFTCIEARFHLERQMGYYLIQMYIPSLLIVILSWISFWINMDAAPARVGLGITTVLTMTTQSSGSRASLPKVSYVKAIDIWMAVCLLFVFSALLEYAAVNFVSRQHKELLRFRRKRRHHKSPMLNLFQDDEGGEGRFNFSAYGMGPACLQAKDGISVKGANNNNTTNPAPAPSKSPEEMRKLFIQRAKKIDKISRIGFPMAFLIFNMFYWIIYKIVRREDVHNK", "assay": "Displacement of [3H]Strychnine from glycine receptor in rat brain synaptic membranes", "format": "cell membranes"}, "Mus musculus [2]": {"test_system": "Mus musculus", "assay": "Induction of clonic convulsions in ip dosed COBS-CDI mouse measured after 3 hrs", "format": "functional"}, "Mus musculus [3]": {"test_system": "Mus musculus", "assay": "Induction of tonic convulsions in ip dosed COBS-CDI mouse measured after 3 hrs", "format": "functional"}, "[4]": {"assay": "Toxicity in ip dosed COBS-CDI mouse assessed as mortality measured after 3 hrs", "format": "organism-based", "conditions": "in vivo"}},
  "data": [
    {"smiles": "CC(=O)N1CC2(CCCC2)c2ccccc21", "values": [
      {"measurement": "IC50", "setting": "[1]", "result": "> 1000", "unit": "µM"},
      {"measurement": "ED50", "setting": "Mus musculus [2]", "result": 1650, "unit": "µmol/kg"},
      {"measurement": "ED50", "setting": "Mus musculus [3]", "result": "> 7420", "unit": "µmol/kg"},
      {"measurement": "LD50 at 3 h", "setting": "[4]", "result": 6880, "unit": "µmol/kg"}
    ]},
    {"smiles": "CC(=O)N1CC2(CCN(C)C2)c2ccccc21", "note": "(configuration not stated)", "values": [
      {"measurement": "IC50", "setting": "[1]", "result": 23.6, "unit": "µM"},
      {"measurement": "ED50", "setting": "Mus musculus [2]", "result": 79.6, "unit": "µmol/kg"},
      {"measurement": "ED50", "setting": "Mus musculus [3]", "result": 83.9, "unit": "µmol/kg"},
      {"measurement": "LD50 at 3 h", "setting": "[4]", "result": 94.8, "unit": "µmol/kg"}
    ]},
    {"smiles": "CC(=O)N1CC2(CCN(Cc3ccccc3)C2)c2ccccc21.O=C(O)C(=O)O", "note": "(configuration not stated)", "values": [
      {"measurement": "IC50", "setting": "[1]", "result": 31, "unit": "µM"},
      {"measurement": "ED50", "setting": "Mus musculus [2]", "result": 252, "unit": "µmol/kg"},
      {"measurement": "ED50", "setting": "Mus musculus [3]", "result": "> 1010", "unit": "µmol/kg"},
      {"measurement": "LD50 at 3 h", "setting": "[4]", "result": 505, "unit": "µmol/kg"}
    ]},
    {"smiles": "C=CCN1CCC2(C1)CN(C(C)=O)c1ccccc12.O=C(O)C(=O)O", "note": "(configuration not stated)", "values": [
      {"measurement": "IC50", "setting": "[1]", "result": 67.9, "unit": "µM"},
      {"measurement": "ED50", "setting": "Mus musculus [2]", "result": 300, "unit": "µmol/kg"},
      {"measurement": "ED50", "setting": "Mus musculus [3]", "result": 434, "unit": "µmol/kg"},
      {"measurement": "LD50 at 3 h", "setting": "[4]", "result": 396, "unit": "µmol/kg"}
    ]},
    {"smiles": "CC(=O)N1CC2(CCNC2)c2ccccc21.O=C(O)C(=O)O", "note": "(configuration not stated)", "values": [
      {"measurement": "IC50", "setting": "[1]", "result": 295, "unit": "µM"},
      {"measurement": "ED50", "setting": "Mus musculus [2]", "result": 542, "unit": "µmol/kg"},
      {"measurement": "ED50", "setting": "Mus musculus [3]", "result": 746, "unit": "µmol/kg"},
      {"measurement": "LD50 at 3 h", "setting": "[4]", "result": 687, "unit": "µmol/kg"}
    ]},
    {"smiles": "CN1CCC2(CNc3ccccc32)C1", "note": "(configuration not stated)", "values": [
      {"measurement": "IC50", "setting": "[1]", "result": 282, "unit": "µM"},
      {"measurement": "ED50", "setting": "Mus musculus [2]", "result": 365, "unit": "µmol/kg"},
      {"measurement": "ED50", "setting": "Mus musculus [3]", "result": 412, "unit": "µmol/kg"},
      {"measurement": "LD50 at 3 h", "setting": "[4]", "result": 412, "unit": "µmol/kg"}
    ]},
    {"smiles": "CC(=O)N1CCc2ccccc21", "values": [
      {"measurement": "IC50", "setting": "[1]", "result": "> 1000", "unit": "µM"},
      {"measurement": "ED50", "setting": "Mus musculus [2]", "result": "> 2480", "unit": "µmol/kg"},
      {"measurement": "ED50", "setting": "Mus musculus [3]", "result": "> 2480", "unit": "µmol/kg"},
      {"measurement": "LD50 at 3 h", "setting": "[4]", "result": 1400, "unit": "µmol/kg"}
    ]},
    {"smiles": "CC(=O)N1c2ccccc2C(C)(C)C1C", "note": "(racemic)", "values": [
      {"measurement": "IC50", "setting": "[1]", "result": "> 1000", "unit": "µM"},
      {"measurement": "ED50", "setting": "Mus musculus [2]", "result": "< 1970", "unit": "µmol/kg"},
      {"measurement": "ED50", "setting": "Mus musculus [3]", "result": "> 3940", "unit": "µmol/kg"},
      {"measurement": "LD50 at 3 h", "setting": "[4]", "result": 2830, "unit": "µmol/kg"}
    ]}
  ]
}
